Experiments:
THP1-STING-KO cells = assay: CellTiter-Glo cell growth; assay type: cell-based, human
Method: (§1) (a–d) AML cells were treated with STING agonists and standard of care cytarabine, and cell viability was measured by CellTiter Glo in (a) THP1-STING-R232, (b) THP1-STING-KO, (c) MV-4-11 and (d) MOLM-16. (e) MV-4-11, MOLM-16 and THP1-STING-KO cells were stimulated with 1 µM of SHR1032 for the indicated time points. The amount of pTBK1, total TBK1, pSTING, total STING and α-tubulin was measured by Western blot. pSTING phosphorylated STING. THP1 reporter cells were treated for 24 h with a total of 100 k cells and 150 ul media in each well a 96-well plate. Following the incubation, 20 µl of supernatant was transferred to an opaque 96 well ½ area plate and incubated for 30 s with 50 µl of QUANTI-Luc substrate (InvivoGen) per manufacturer’s instructions. Luminescence signal was measured using Tecan infinite M1000. EC50 values were calculated using non-linear regression analysis of GraphPad Prism. Cell growth was monitored by CellTiter-Glo Luminescent Cell Viability Assay (Promega) per manufacture’s protocol. GI50 values were calculated using non-linear regression analysis of GraphPad Prism. Cell lysates for western blotting were made in RIPA buffer (Sigma) with Halt Protease and Phosphatase Inhibitors (Thermo Scientific). Antibodies against pSTING, TBK1, pTBK1 and tubulin were purchased from Cell Signaling Technologies, and anti-STING was purchased from Protein Tech.

THP1-STING-R232 cells = assay: CellTiter-Glo cell growth; assay type: cell-based, human; settings: Homo sapiens
Method: as §1

cynomolgus PBMC = assay: IFNβ ELISA; assay type: cell-based, cynomolgus monkey; settings: 5 h, vs ADU-S100
Method: (§2) Figure 2 SHR1032 specifically and potently activates STING signaling pathway. IRF luciferase reporter assays in (a) THP1-STING-R232, THP1-STING-H232, THP1-STING-HAQ, and THP1-STING-KO cells. Cells were stimulated for 24 h with the indicated STING compounds and assessed for luciferase activity. IFNβ production and activation of cGAS-STING signaling pathway in (b) human THP1-STING-R232, human PBMCs from a donor homozygous for the R232 variant, cynomolgus PBMC, and mouse RAW164.7 macrophage cells were treated with STING agonists for 5 h. IFNβ in media was quantified by human or mouse ELISA kits respectively. (c) THP1-STING-R232 cells and mouse RAW164.7 macrophage cells were stimulated with 40 µM of ADU-S100 or 10 µM of SHR1032 for the indicated time points. The amount of pTBK1, total TBK1, STING and α-tubulin was measured by western blotting.
Human and Cynomolgous PBMC’s were thawed and spun down in Lymphocyte media (ZENBIO) and resuspended in media to 1.5 x 10^6 cells/ml density. […] Human and monkey IFN-β protein concentration was measured using human IFN-β Quantikine ELISA Kits (R&D Systems) per manufacture’s protocol. Mouse IFN-β was measured using mouse IFN-β Quantikine ELISA Kits (R&D Systems) per manufacture’s protocol. Mouse TNFα, IFN-β and IL-6 in the tumor lysates and plasma was measured by Quantikine ELISA Kits (R&D Systems) per manufacture’s protocol.

[1] = system: THP1-IFNAR2-WT and THP1-IFNAR2-KO cells; assay: Cell TiterGlo cell viability, IFNAR2 WT versus KO; assay type: cell-based, human; settings: THP1-IFNAR2-WT vs -KO
Method: Figure 5 Cell apoptosis induced by SHR1032 in AML cell lines is independent of type I interferon. (a–d) RNA-Seq analysis of THP1-STING-R232, THP1-STING-KO and MV4-11 AML cells treated with 1 µM of SHR1032 for 4 h. […] (d) ANNEXIN V staining analysis with flow cytometry in MV4-11, MOLM-16, THP1-STING-WT and THP1-STING-KO cells. (e) Cell viability analysis by CellTiter Glo in THP1-IRFAR2-WT or -KO cells.
Type I interferons have been known to drive apoptosis in AML cells. Therefore, the apoptotic effects might be caused by type I interferons generated by STING activation. To address this question, we examined the IFNβ production with ELISA in MV4-11 and MOLM-16 cells stimulated with SHR1032. […] The activity of type I IFNs is mediated by the IFN-α receptor (IFNAR), which consists of two chains: IFNAR1 and IFNAR2. Knockout of the IFNAR2 gene abolishes the cellular response to type I IFNs.
(§3) THP1 reporter cells were treated for 24 h with a total of 100 k cells and 150 ul media in each well a 96-well plate. […] Luminescence signal was measured using Tecan infinite M1000. EC50 values were calculated using non-linear regression analysis of GraphPad Prism. Cell growth was monitored by CellTiter-Glo Luminescent Cell Viability Assay (Promega) per manufacture’s protocol. GI50 values were calculated using non-linear regression analysis of GraphPad Prism. […]

[2] = system: mouse RAW164.7 macrophage cells; assay: Western blot of TBK1 phosphorylation; assay type: cell-based; settings: 10 µM SHR1032 vs 40 µM ADU-S100
Method: as §2, §3

CCn1nc(C)cc1C(=O)Nc1nc2cc(C(N)=O)cc(OC)c2n1CCC[C@H]1COc2cc(C(N)=O)cc3nc(NC(=O)c4cc(C)nn4CC)n1c23 [SHR1032]
cell growth inhibition (THP1-STING-KO cells): not detectable
GI50 (THP1-STING-R232 cells): 23 nM
monkey IFNβ production (cynomolgus PBMC): lower than that with that of ADU-S100, but still detectable
effect of IFNA receptor deletion on induced cell death [1]: no effect on cell death induced by SHR1032
TBK1 phosphorylation [2]: lower

Reference: publication PMC9122897, “SHR1032, a novel STING agonist, stimulates anti-tumor immunity and directly induces AML apoptosis” (Scientific Reports, 2022)
